Experimental data taken from patent publication US10457689B2, “Ammonium derivatives, a process for their preparation and pharmaceutical compositions containing them” (LES LABORATOIRES SERVIER, priority 2016, dated 2019).
Where a name gives a salt, the structure may show the parent alone.

Experiments:
Mcl-1 protein = Mcl-1 protein (Homo sapiens, UniProt Q07820); test: Inhibition of Mcl-1 by the fluorescence polarisation technique; type: binding; details: fluorescence polarisation test; read-out: IC50 (M) Mcl-LFP
Sequence of Mcl-1 protein (Q07820 whole entry): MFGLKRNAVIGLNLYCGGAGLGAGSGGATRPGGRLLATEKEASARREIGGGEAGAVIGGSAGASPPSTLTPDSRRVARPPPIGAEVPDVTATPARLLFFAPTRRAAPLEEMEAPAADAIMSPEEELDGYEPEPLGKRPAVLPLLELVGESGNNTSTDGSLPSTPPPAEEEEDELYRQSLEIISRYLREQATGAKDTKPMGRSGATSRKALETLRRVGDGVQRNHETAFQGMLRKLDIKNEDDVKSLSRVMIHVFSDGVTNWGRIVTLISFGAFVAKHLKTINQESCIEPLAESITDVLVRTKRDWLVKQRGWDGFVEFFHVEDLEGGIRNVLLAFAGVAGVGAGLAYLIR
Method: The relative, binding potency of each compound was determined via Fluorescence Polarisation (FP). The method utilised a Fluorescein labelled ligand (Fluorescein-βAla-Ahx-A-REIGAQLRRMADDLNAQY-OH; mw 2,765) which binds to the Mcl-1 protein (such that Mcl-1 corresponds to the UniProtKB® primary accession number: Q07820) leading to an increased anisotropy measured in milli-polarisation (mP) units using a reader. The addition of a compound which binds competitively to the same site as the ligand will result in a greater proportion of unbound ligand in the system indicated by a decrease in mP units.
An 11 point serial dilution of each compound was prepared in DMSO and 2 μl transferred into flat bottomed, low binding, 384-well plate (final DMSO concentration 5%), 38 μl of buffer (10 mM 4-(2-hydroxyethyl)-1-piperazineethanesolfonic acid [HEPES], 150 mM NaCl, 0.05% Tween 20, pH 7.4), containing the Fluorescein labelled ligand (final concentration 1 nM) and Mcl-1 protein (final concentration 5 nM) was then added.
Assay plates were incubated ˜2 hours at room temperature before FP was measured on a […] Synergy2 reader (Ex. 528 nm, Em. 640 nm, Cut off 510 nm) and mP units calculated. The binding of increasing doses of test compound was expressed as a percentage reduction in mP compared to a window established between ‘5% DMSO only’ and ‘100% inhibition’ controls. 11-point dose response curves were plotted with XL-Fit software using a 4-Parameter Logistic Model (Sigmoidal Dose-Response Model) and the inhibitory concentrations that gave a 50% reduction in mP (IC50) were determined.

[1] = tested on: H929 multiple myeloma tumour line; test: In vitro cytotoxicity (MTT); type: cell-based; details: 48 hours exposure
Method: The cytotoxicity studies were carried out on the H929 multiple myeloma tumour line.
The cells are distributed onto microplates and exposed to the test compound for 48 hours.
The cell viability is then quantified by a colorimetric assay, the Microculture Tetrazolium Assay (Carmichael et al. Cancer Res. 1987, 47, 936-942).

[2] = Homo sapiens, NCI-H929, H929 cells

| Compound | IC50 (Mcl-1 protein) | IC50 ([1]; H929 cells) | IC50 [1, 2] |
| --- | --- | --- | --- |
| 4-[2-(4-{(5Sa)-4-[(1R)-1-carboxy-2-(2-{[2-(2-methoxyphenyl)pyrimidin-4-yl]methoxy}phenyl)ethoxy]-6-(4-fluorophenyl)thieno[2,3-d]pyrimidin-5-yl}-2-chloro-3-methylphenoxy)ethyl]-1-{[(diethylcarbamoyl)oxy]methyl}-1-methylpiperazin-1-ium trifluoroacetate [Example 19] | 1.2e-09 M | 1640 nM | – |
| CCOC(=O)OC[N+]1(C)CCN(CCOc2ccc(-c3c(-c4ccc(F)cc4)sc4ncnc(OC(Cc5ccccc5OCc5ccnc(-c6ccccc6OC)n5)C(=O)O)c34)c(C)c2Cl)CC1 [Example 18, 4-[2-(4-{(5Sa)-4-[(1R)-1-carboxy-2-(2-{[2-(2-methoxyphenyl)pyrimidin-4-yl]methoxy}phenyl)ethoxy]-6-(4-fluorophenyl)thieno[2,3-d]pyrimidin-5-yl}-2-chloro-3-methylphenoxy)ethyl]-1-{[(ethoxycarbonyl)oxy]methyl}-1-methylpiperazin-1-ium] | 9.48e-10 M | – | 1.74 nM |
| COc1ccccc1-c1nccc(COc2ccccc2C[C@@H](Oc2ncnc3sc(-c4ccc(F)cc4)c(-c4ccc(OCCN5CC[N+](C)(COC(=O)C(C)(C)C)CC5)c(Cl)c4Br)c23)C(=O)O)n1 [Example 32, 4-[2-(3-bromo-4-{(5Sa)-4-[(1R)-1-carboxy-2-(2-{[2-(2-methoxyphenyl)pyrimidin-4-yl]methoxy}phenyl)ethoxy]-6-(4-fluorophenyl)thieno[2,3-d]pyrimidin-5-yl}-2-chlorophenoxy)ethyl]-1-{[(2,2-dimethylpropanoyl)oxy]methyl}-1-1-methyl piperazin-1-ium trifluoroacetate] | 1.77e-09 M | 2.11 nM | – |
| COc1ccccc1-c1nccc(COc2ccccc2CC(Nc2ncnc3sc(-c4ccc(F)cc4)c(-c4ccc(OCCN5CC[N+](C)(COP(=O)([O-])O)CC5)c(Cl)c4C)c23)C(=O)O)n1 [Example 8, N-[(5Sa)-5-{3-chloro-4-[2-(4-{[(hydroxyphosphinato)oxy]methyl}-4-methylpiperazin-4-ium-1-yl)ethoxy]-2-methylphenyl}-6-(4-fluorophenyl)thieno[2,3-d]pyrimidin-4-yl]-2-{[2-(2-methoxyphenyl)pyrimidin-4-yl]methoxy}-D-phenylalanine] | 9.48e-10 M | – | 229 nM |
| COc1ccccc1-c1nccc(COc2ccccc2CC(Oc2ncnc3sc(-c4ccc(F)cc4)c(-c4ccc(OCCN5CC[N+](C)(COC(C)=O)CC5)c(Cl)c4Br)c23)C(=O)O)n1 [Example 25, 1-[(acetyloxy)methyl]-4-[2-(3-bromo-4-{(5Sa)-4-[(1R)-1-carboxy-2-(2-{[2-(2-methoxyphenyl)pyrimidin-4-yl]methoxy}phenyl)ethoxy]-6-(4-fluorophenyl)thieno[2,3-d]pyrimidin-5-yl}-2-chlorophenoxy)ethyl]-1-methylpiperazin-1-ium trifluoroacetate] | 1.07e-09 M | 1.95 nM | – |
| CCN(CC)C(=O)OC[N+]1(C)CCN(CCOc2ccc(-c3c(-c4ccc(F)cc4)sc4ncnc(OC(Cc5ccccc5OCc5ccnc(-c6ccccc6OC)n5)C(=O)O)c34)c(Br)c2Cl)CC1 [Example 27, 1-[2-(3-bromo-4-{(5Sa)-4-[(1R)-1-carboxy-2-(2-{[2-(2-methoxyphenyl)pyrimidin-4-yl]methoxy}phenyl)ethoxy]-6-(4-fluorophenyl)thieno[2,3-d]pyrimidin-5-yl}-2-chlorophenoxy)ethyl]-1-{[(diethylcarbamoyl)oxy]methyl}-1-methylpiperazin-1-ium trifluoroacetate] | 1.17e-09 M | 1900 nM | – |
| CCOC(=O)OC[N+]1(C)CCN(CCOc2ccc(-c3c(-c4ccc(F)cc4)sc4ncnc(OC(Cc5ccccc5OCc5ccnc(-c6ccccc6OC)n5)C(=O)O)c34)c(Br)c2Cl)CC1 [Example 26, 4-[2-(3-bromo-4-{(5Sa)-4-[(1R)-1-carboxy-2-(2-{[2-(2-methoxyphenyl)pyrimidin-4-yl]methoxy}phenyl)ethoxy]-6-(4-fluorophenyl)thieno[2,3-d]pyrimidin-5-yl}-2-chlorophenoxy)ethyl]-1-{[(ethoxycarbonyl)oxy]methyl}-1-methylpiperazin-1-ium trifluoroacetate] | 9.48e-10 M | 2.29 nM | – |
| COc1ccccc1-c1nccc(COc2ccccc2CC(Oc2ncnc3sc(-c4ccc(F)cc4)c(-c4ccc(OCCN5CC[N+](C)(COC(=O)C(C)(C)C)CC5)c(Cl)c4C)c23)C(=O)O)n1 [Example 24, 4-[2-(4-{(5Sa)-4-[(1R)-1-carboxy-2-(2-{[2-(2-methoxyphenyl)pyrimidin-4-yl]methoxy}phenyl)ethoxy]-6-(4-fluorophenyl)thieno[2,3-d]pyrimidin-5-yl}-2-chloro-3-methylphenoxy)ethyl]-1-{[(2,2-dimethylpropanoyl)oxy]methyl}-1-methylpiperazin-1-ium trifluoroacetate] | 1.04e-09 M | 2.52 nM | – |
| COc1ccccc1-c1nccc(COc2ccccc2CC(Oc2ncnc3sc(-c4ccc(F)cc4)c(-c4ccc(OCCN5CC[N+](C)(COC(C)=O)CC5)c(Cl)c4C)c23)C(=O)O)n1 [Example 17, 1-[(acetyloxy)methyl]-4-[2-(4-{(5Sa)-4-[(1R)-1-carboxy-2-(2-{[2-(2-methoxyphenyl)pyrimidin-4-yl]methoxy}phenyl)ethoxy]-6-(4-fluorophenyl)thieno[2,3-d]pyrimidin-5-yl}-2-chloro-3-methylphenoxy)ethyl]-1-methylpiperazin-1-ium trifluoroacetate] | 1.12e-09 M | 2.15 nM | – |
| CCN(CC)C(=O)OC(C)[N+]1(C)CCN(CCOc2ccc(-c3c(-c4ccc(F)cc4)sc4ncnc(OC(Cc5ccccc5OCc5ccnc(-c6ccccc6OC)n5)C(=O)O)c34)c(Br)c2Cl)CC1 [Example 29, 4-[2-(3-bromo-4-{(5Sa)-4-[(1R)-1-carboxy-2-(2-{[2-(2-methoxyphenyl)pyrimidin-4-yl]methoxy}phenyl)ethoxy]-6-(4-fluorophenyl)thieno[2,3-d]pyrimidin-5-yl}-2-chlorophenoxy)ethyl]-1-{1-[(diethylcarbamoyl)oxy]ethyl}-1-methylpiperazin-1-ium trifluoroacetate] | 1.36e-09 M | 136 nM | – |
| COc1ccccc1-c1nccc(COc2ccccc2CC(Oc2ncnc3sc(-c4ccc(F)cc4)c(-c4ccc(OCCN5CC[N+](C)(Cc6oc(=O)oc6C)CC5)c(Cl)c4C)c23)C(=O)O)n1 [Example 22, 4-[2-(4-{(5Sa)-4-[(1R)-1-carboxy-2-(2-{[2-(2-methoxyphenyl)pyrimidin-4-yl]methoxy}phenyl)ethoxy]-6-(4-fluorophenyl)thieno[2,3-d]pyrimidin-5-yl}-2-chloro-3-methylphenoxy)ethyl]-1-methyl-1-[(5-methyl-2-oxo-1,3-dioxol-4-yl)methyl]piperazin-1-ium trifluoroacetate] | 9.48e-10 M | 2.23 nM | – |
| COc1ccccc1-c1nccc(COc2ccccc2CC(Oc2ncnc3sc(-c4ccc(F)cc4)c(-c4ccc(OCCN5CC[N+](C)(COP(=O)([O-])O)CC5)c(Cl)c4Br)c23)C(=O)O)n1 [Example 5, {4-[2-(3-bromo-4-{(5Sa)-4-[(1R)-1-carboxy-2-(2-{[2-(2-methoxyphenyl)pyrimidin-4-yl]methoxy}phenyl)ethoxy]-6-(4-fluorophenyl)thieno[2,3-d]pyrimidin-5-yl}-2-chlorophenoxy)ethyl]-1-methylpiperazin-1-ium-1-yl}methyl hydrogen phosphate] | 1.06e-09 M | – | 55.4 nM |
| COc1ccccc1-c1nccc(COc2ccccc2C[C@@H](Oc2ncnc3sc(-c4ccc(F)cc4)c(-c4ccc(OCCN5CC[N+](C)(Cc6oc(=O)oc6C)CC5)c(Cl)c4Br)c23)C(=O)O)n1 [Example 30, 4-[2-(3-bromo-4-{(5Sa)-4-[(1R)-1-carboxy-2-(2-{[2-(2-methoxyphenyl)pyrimidin-4-yl]methoxy}phenyl)ethoxy]-6-(4-fluorophenyl)thieno[2,3-d]pyrimidin-5-yl}-2-chlorophenoxy)ethyl]-1-methyl-1-[(5-methyl-2-oxo-1,3-dioxol-4-yl)methyl]piperazin-1-ium trifluoroacetate] | 9.48e-10 M | 2.81 nM | – |
| CCN(CC)C(=O)OC(C)[N+]1(C)CCN(CCOc2ccc(-c3c(-c4ccc(F)cc4)sc4ncnc(O[C@H](Cc5ccccc5OCc5ccnc(-c6ccccc6OC)n5)C(=O)O)c34)c(C)c2Cl)CC1 (stereo partly drawn) [Example 21, 4-[2-(4-{(5Sa)-4-[(1R)-1-carboxy-2-(2-{[2-(2-methoxyphenyl)pyrimidin-4-yl]methoxy}phenyl)ethoxy]-6-(4-fluorophenyl)thieno[2,3-d]pyrimidin-5-yl}-2-chloro-3-methylphenoxy)ethyl]-1-{1-[(diethylcarbamoyl)oxy]ethyl}-1-methylpiperazin-1-ium trifluoroacetate] | 1.96e-09 M | 70.4 nM | – |
